Measured values published in patent US10183942B2, “JAK kinase inhibitor compounds for treatment of respiratory disease” (THERAVANCE BIOPHARMA R&D IP, LLC, priority 2015, dated 2019).

Experiments:
JAK1 = JAK1 (Homo sapiens (Human), UniProt P23458)
[1] = test system: IL-13 induced pSTAT6 induction in lung tissue; test: Murine model of IL-13 induced pSTAT6 induction in lung tissue; format: in vivo; details: mouse lung; for inhibition of STAT6 phosphorylation in the pharmacodynamic assay: IL-13 challenge 4 h after dose; for lung concentration smaller than that of the corresponding compound of the invention by a factor: pharmacodynamic assay, C-1 vs 1, C-2 vs 7, C-3 vs 13, C-4 vs 6
Method: 11-13 is an important cytokine underlying the pathophysiology of asthma (Kudlacz et al. Eur. J. Pharmacol, 2008, 582, 154-161). IL-13 binds to cell surface receptors activating members of the Janus family of kinases (JAK) which then phosphorylate STAT6 and subsequently activates further transcription pathways. In the described model, a dose of IL-13 was delivered locally into the lungs of mice to induce the phosphorylation of STAT6 (pSTAT6) which is then measured as the endpoint.
Adult balb/c mice from Harlan were used in the assay. On the day of study, animals were lightly anesthetized with isoflurane and administered either vehicle or test compound (0.5 mg/mL, 50 μL total volume over several breaths) via oral aspiration. Animals were placed in lateral recumbency post dose and monitored for full recovery from anesthesia before being returned to their home cage. Four hours later, animals were once again briefly anesthetized and challenged with either vehicle or IL-13 ([…] total dose delivered, 50 μL total volume) via oral aspiration before being monitored for recovery from anesthesia and returned to their home cage. One hour after vehicle or IL-13 administration, lungs were collected for both pSTAT6 detection using an anti-pSTAT6 ELISA (rabbit mAb capture/coating antibody; mouse mAb detection/report antibody: anti-pSTAT6-pY641; secondary antibody: anti-mouse IgG-HRP) and analyzed for total drug concentration as described above in Assay 4.
Selected compounds of the invention were tested in the assay. Activity in the model is evidenced by a decrease in the level of pSTAT6 present in the lungs of treated animals at 5 hours compared to the vehicle treated, IL-13 challenged control animals. The difference between the control animals which were vehicle-treated, IL-13 challenged and the control animals which were vehicle-treated, vehicle challenged dictated the 0% and 100% inhibitory effect, respectively, in any given experiment.

[2] = Pharmacokinetics in plasma and lung in mouse; format: in vivo; details: oral aspiration 0.2 mg/mL 50 uL, lung AUC / plasma AUC
Method: Plasma and lung levels of test compounds and ratios thereof were determined in the following manner. BALB/c mice from Charles River Laboratories were used in the assay. Test compounds were individually formulated in 20% propylene glycol in pH 4 citrate buffer at a concentration of 0.2 mg/mL and 50 uL of the dosing solution was introduced into the trachea of a mouse by oral aspiration. At various time points (typically 0.167, 2, 6, 24 hr) post dosing, blood samples were removed via cardiac puncture and intact lungs were excised from the mice. Blood samples were centrifuged (Eppendorf centrifuge, 5804R) for 4 minutes at approximately 12,000 rpm at 4° C. to collect plasma. Lungs were padded dry, weighed, and homogenized at a dilution of 1:3 in sterile water. Plasma and lung levels of test compound were determined by LC-MS analysis against analytical standards constructed into a standard curve in the test matrix. A lung to plasma ratio was determined as the ratio of the lung AUC in μg hr/g to the plasma AUC in […], where AUC is conventionally defined as the area under the curve of test compound concentration vs. time.

[3] = test system: interleukin-13 induced STAT6 phosphorylation in BEAS-2B human lung epithelial cells; test: Cellular JAKI potency assay (AlphaScreen, BEAS-2B); format: cell-based; details: C-1 vs 1, C-2 vs 7, C-3 vs 13, C-4 vs 6
Method: The AlphaScreen JAKI cellular potency assay was carried out by measuring interleukin-13 (IL-13, R&D Systems) induced STAT6 phosphorylation in BEAS-2B human lung epithelial cells (ATCC). The anti-STAT6 antibody (Cell Signaling Technologies) was conjugated to AlphaScreen acceptor beads (Perkin Elmer), while the anti-pSTAT6 (pTyr641) antibody (Cell Signaling Technologies) was biotinylated using EZ-Link Sulfo-NHS-Biotin (Thermo Scientific).
BEAS-2B cells were grown at 37° C. in a 5% CO2 humidified incubator in 50% DMEM/50% F-12 medium (Life Technologies) supplemented with 10% FBS (Hyclone), 100 U/mL penicillin, 100 μg/mL streptomycin (Life Technologies), and 2 mM GlutaMAX (Life Technologies). On day 1 of the assay, cells were seeded at a 7,500 cells/well density in white poly-D-lysine-coated 384-well plates (Corning) with 25 μL medium, and were allowed to adhere overnight in the incubator. On day 2 of the assay, the medium was removed and replaced with 12 μL of assay buffer (Hank's Balanced Salt Solution/HBSS, 25 mM HEPES, and 1 mg/ml bovine serum albumin/BSA) containing dose-responses of test compounds. Compounds were serially diluted in DMSO and then diluted another 1000-fold in media to bring the final DMSO concentration to 0.1%. Cells were incubated with test compounds at 37° C. for 1 h, and followed by the addition of 12 μl of pre-warmed IL-13 (80 ng/ml in assay buffer) for stimulation. After incubating at 37° C. for 30 min, the assay buffer (containing compound and IL-13) was removed, and 10 μl of cell lysis buffer (25 mM HEPES, 0.1% SDS, 1% NP-40, 5 mM MgCl2, 1.3 mM EDTA, 1 mM EGTA, and supplement with Complete Ultra mini protease inhibitors and PhosSTOP from Roche Diagnostics). The plates were shaken at ambient temperature for 30 min before the addition of detection reagents. […] After a minimum of 2 h incubation, the assay plates were read on the EnVision plate reader.
Results were expressed as the negative logarithm of the IC50 value, pIC50.

[4] = Dynamic moisture sorption assessment; format: physicochemical
Method: Dynamic moisture sorption (DMS) measurement was performed using a VTI atmospheric microbalance, SGA-100 system (VTI Corp., Hialeah, Fla. 33016). A weighed sample was used and the humidity was lowest possible value (close to 0% RH) at the start of the analysis. The DMS analysis consisted of an initial drying step (˜0% RH) for 120 minutes, followed by two cycles of sorption and desorption with a scan rate of 5% RH/step over the humidity range of 5% RH to 90% RH. The DMS run was performed isothermally at 25° C.

JAK1, sequence (P23458 whole entry): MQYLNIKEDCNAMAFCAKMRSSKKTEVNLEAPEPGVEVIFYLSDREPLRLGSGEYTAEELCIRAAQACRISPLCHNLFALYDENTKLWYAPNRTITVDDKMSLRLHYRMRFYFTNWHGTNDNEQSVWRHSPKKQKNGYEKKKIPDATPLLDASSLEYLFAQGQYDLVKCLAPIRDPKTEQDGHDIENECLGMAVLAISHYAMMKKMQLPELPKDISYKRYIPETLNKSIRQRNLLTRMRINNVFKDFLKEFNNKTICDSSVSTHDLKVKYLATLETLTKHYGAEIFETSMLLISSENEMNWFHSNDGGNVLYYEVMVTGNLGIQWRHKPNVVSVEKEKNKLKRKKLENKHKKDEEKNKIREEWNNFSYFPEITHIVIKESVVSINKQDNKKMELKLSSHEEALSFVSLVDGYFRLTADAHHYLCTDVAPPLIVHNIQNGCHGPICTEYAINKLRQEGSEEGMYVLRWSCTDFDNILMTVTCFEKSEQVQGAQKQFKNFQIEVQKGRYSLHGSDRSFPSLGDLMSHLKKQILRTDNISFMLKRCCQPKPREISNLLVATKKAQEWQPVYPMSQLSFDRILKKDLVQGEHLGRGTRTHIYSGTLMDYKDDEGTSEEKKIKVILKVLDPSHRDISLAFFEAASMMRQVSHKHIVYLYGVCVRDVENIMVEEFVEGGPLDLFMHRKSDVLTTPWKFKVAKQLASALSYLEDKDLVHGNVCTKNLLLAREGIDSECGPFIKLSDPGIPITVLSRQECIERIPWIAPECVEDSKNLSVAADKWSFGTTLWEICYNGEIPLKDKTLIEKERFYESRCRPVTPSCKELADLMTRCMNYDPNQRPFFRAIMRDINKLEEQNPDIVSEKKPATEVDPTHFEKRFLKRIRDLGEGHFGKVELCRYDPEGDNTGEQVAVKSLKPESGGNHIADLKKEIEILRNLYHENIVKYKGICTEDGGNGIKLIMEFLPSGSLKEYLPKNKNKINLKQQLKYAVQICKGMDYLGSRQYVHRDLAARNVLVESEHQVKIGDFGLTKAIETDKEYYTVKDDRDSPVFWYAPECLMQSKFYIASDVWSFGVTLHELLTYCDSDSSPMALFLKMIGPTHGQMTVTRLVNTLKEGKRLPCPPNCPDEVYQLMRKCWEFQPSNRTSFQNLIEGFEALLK

Row | Compound | Ki (JAK1) [pM] | Lung to Plasma ratio Assay 4 [2] | other results
1 | CCc1cc(O)c(F)cc1-c1ccc2c(-c3nc4c([nH]3)CCN(C3CN(CCO)C3)C4)n[nH]c2c1 [Example 1-1] | < 100 | – | –
2 | CCc1cc(O)c(F)cc1-c1ccc2c(-c3nc4c([nH]3)CCN(C3CN(CC)C3)C4)n[nH]c2c1 [Example 1-3] | < 100 | – | –
3 | CCc1cc(O)c(F)cc1-c1ccc2c(-c3nc4c([nH]3)CCN(C3CN(CCOC)C3)C4)n[nH]c2c1 [Example 1-6] | < 100 | – | –
4 | CCc1cc(O)c(F)cc1-c1ccc2c(-c3nc4c([nH]3)CCN(C3CN(CCC#N)C3)C4)n[nH]c2c1 [Example 1-8] | < 100 | – | –
5 | CCc1cc(O)c(F)cc1-c1ccc2c(-c3nc4c([nH]3)CCN(C3CN(C5CCS(=O)(=O)C5)C3)C4)n[nH]c2c1 (stereo not shown) [Example 1-15] | – | – | inhibition of STAT6 phosphorylation in the pharmacodynamic assay [1]: exceptions
6 | CCc1cc(O)c(F)cc1-c1ccc2c(-c3nc4c([nH]3)CCN(C3CCNCC3)C4)n[nH]c2c1 [Example 2-3] | < 100 | – | –
7 | CCc1cc(O)c(F)cc1-c1ccc2c(-c3nc4c([nH]3)CCN(CCNC3(C#N)CC3)C4)n[nH]c2c1 [Example 3-1] | – | – | inhibition of STAT6 phosphorylation in the pharmacodynamic assay [1]: exceptions
8 | CCc1cc(O)c(F)cc1-c1ccc2c(-c3nc4c([nH]3)CCN(CCN(C)CC(C)C)C4)n[nH]c2c1 [Example 3-33] | – | A (A denotes a ratio >100) | –
9 | CCc1cc(O)c(F)cc1-c1ccc2c(-c3nc4c([nH]3)CCN(CCNC3CC(OC)C3)C4)n[nH]c2c1 (stereo not shown) [Example 8, 5-Ethyl-2-fluoro-4-(3-(5-(2-((3-methoxycyclobutyl)amino)ethyl)-4,5,6,7-tetrahydro-1H-imidazo[4,5-c]pyridin-2-yl)-1H-indazol-6-yl)phenol] | – | A (A denotes a ratio >100) | –
10 | CCc1cc(O)c(F)cc1-c1ccc2c(-c3nc4c([nH]3)CCN(C3CCNC3)C4)n[nH]c2c1 (stereo not shown) [Example 9-1] | < 100 | – | –
11 | CCc1cc(O)c(F)cc1-c1ccc2c(-c3nc4c([nH]3)CCN(C[C@@H]3CCCN3C)C4)n[nH]c2c1 [Example 11, (S)-5-ethyl-2-fluoro-4-(3-(5-((1-methylpyrrolidin-2-yl)methyl)-4,5,6,7-tetrahydro-1H-imidazo[4,5-c]pyridin-2-yl)-1H-indazol-6-yl)phenol] | – | A (A denotes a ratio >100) | –
12 | CCc1cc(O)c(F)cc1-c1ccc2c(-c3nc4c([nH]3)CCN(C[C@H]3COCCN3)C4)n[nH]c2c1 [Example 13, (S)-5-Ethyl-2-fluoro-4-(3-(5-(morpholin-3-ylmethyl)-4,5,6,7-tetrahydro-1H-imidazo[4,5-c]pyridin-2-yl)-1H-indazol-6-yl)phenol] | – | A (A denotes a ratio >100) | –
13 | CCc1cc(O)c(F)cc1-c1ccc2c(-c3nc4c([nH]3)CCN(C[C@@H]3COCCN3)C4)n[nH]c2c1 [Example 14, (R)-5-Ethyl-2-fluoro-4-(3-(5-(morpholin-3-ylmethyl)-4,5,6,7-tetrahydro-1H-imidazo[4,5-c]pyridin-2-yl)-1H-indazol-6-yl)phenol] | – | A (A denotes a ratio >100) | –
14 | CCc1cc(O)c(F)cc1-c1ccc2c(-c3nc4c([nH]3)CCN(CC3CNC3)C4)n[nH]c2c1 [Example 14-7] | < 100 | A (A denotes a ratio >100) | –
15 | CCc1cc(O)c(F)cc1-c1ccc2c(-c3nc4c([nH]3)CCN(CCN3CCC[C@@H]3C)C4)n[nH]c2c1 [Example 15, (S)-5-ethyl-2-fluoro-4-(3-(5-(2-(2-methylpyrrolidin-1-yl)ethyl)-4,5,6,7-tetrahydro-1H-imidazo[4,5-c]pyridin-2-yl)-1H-indazol-6-yl)phenol] | – | A (A denotes a ratio >100) | –
16 | CCc1cc(O)c(F)cc1-c1ccc2c(-c3nc4c([nH]3)CCN(C3CC(C)C3)C4)n[nH]c2c1 (stereo not shown) [Example C-1, 5-Ethyl-2-fluoro-4-(3-(5-(3-methylcyclobutyl)-4,5,6,7-tetrahydro-1H-imidazo[4,5-c]pyridin-2-yl)-1H-indazol-6-yl)phenol] | – | – | lung concentration smaller than that of the corresponding compound of the invention by a factor [1]: 36
17 | CCc1cc(O)c(F)cc1-c1ccc2c(-c3nc4c([nH]3)CCN(CCC(C)C)C4)n[nH]c2c1 [Example C-2] | – | – | fold less potent than the corresponding compound of the invention in the BEAS-2B cellular assay [3]: 6 fold; lung concentration smaller than that of the corresponding compound of the invention by a factor [1]: 52
18 | CCc1cc(O)c(F)cc1-c1ccc2c(-c3nc4c([nH]3)CCN(CC3CCCOC3)C4)n[nH]c2c1 (stereo not shown) [Example C-3] | – | – | fold less potent than the corresponding compound of the invention in the BEAS-2B cellular assay [3]: 3 fold; lung concentration smaller than that of the corresponding compound of the invention by a factor [1]: 13
19 | CCc1cc(O)c(F)cc1-c1ccc2c(-c3nc4c([nH]3)CCN(C3CCC(C)CC3)C4)n[nH]c2c1 (stereo not shown) [Example C-4] | – | – | fold less potent than the corresponding compound of the invention in the BEAS-2B cellular assay [3]: 6 fold; lung concentration smaller than that of the corresponding compound of the invention by a factor [1]: 23
20 | CCc1cc(O)c(F)cc1-c1ccc2c(-c3nc4c([nH]3)CCN(C3CCN(C)CC3)C4)n[nH]c2c1 [crystalline hydrate, Crystalline hydrate of 5-ethyl-2-fluoro-4-(3-(5-(1-methylpiperidin-4-yl)-4,5,6,7-tetrahydro-1H-imidazo[4,5-c]pyridin-2-yl)-1H-indazol-6-yl)phenol] | – | – | weight gain in dynamic moisture sorption ([4]; 5% to 90% relative humidity, about 25° C.): less than 0.12%; hygroscopicity ([4]; two cycles of sorption and desorption): non-hygroscopic
